Where only a bound is given, the exact number is not on record here.

The nature of the data set: Solubilities of pHMBA and Impurities in Water. It counts as physicochemical. As to the method: Since solubilities of p-hydroxymethylbenzoic acid and impurities in solvents depend upon the temperature at which the reaction takes place, increased product production is obtained by increased temperature and pressure.
Solubilities of pHMBA and Impurities in Water
Solubility (g/100 ml H2 O)

For the compound `O=C(O)c1ccc(CO)cc1` [pHMBA, p-hydroxymethylbenzoic acid], the “Solubility at 20° C.” value is ~ 0.5 g/100 ml H2 O and the “Solubility at 100° C.” value is listed as ~ 10.0 g/100 ml H2 O.

Regarding `Cc1ccc(C(=O)O)cc1` [p-Toluic Acid, p-toluic acid], the “Solubility at 20° C.” value stood at 0.02 g/100 ml H2 O and the “Solubility at 100° C.” value was found to be 0.22 g/100 ml H2 O.

Consider `O=C(O)c1ccc(C(=O)O)cc1` [Terephthalic Acid, terephthalic acid], for which the “Solubility at 20° C.” value is reported as < 0.005 g/100 ml H2 O and the “Solubility at 100° C.” value was 0.03 g/100 ml H2 O.

Consider `O=Cc1ccc(C(=O)O)cc1` [4-CBA, 4-carboxybenzaldehyde], for which the “Solubility at 20° C.” value was < 0.005 g/100 ml H2 O and the “Solubility at 100° C.” value was ~ 0.25 g/100 ml H2 O.

Values taken from patent US4721808A, “Process for purification of crude p-hydroxymethylbenzoic acid” (Amoco Corporation, priority 1987, dated 1988).
